Data set [1] can be described thus: in vitro. The conditions noted are these: human, liver microsomes.
A short description of data set [2]: Lipophilicity, log P of the compound. The data set is classed as physicochemical. As to conditions: octanol/water.
A short description of data set [3]: physchem. As to conditions: octanol/water, pH 7.4.
Data set [4] in a line: Half life in rat at 0.5 mg/kg, iv and 10 mg/kg, po. The data set is classed as ADME, organism-based. The conditions noted are these: in vivo.
The nature of data set [5]: Clearance in rat at 0.5 mg/kg, iv and 10 mg/kg, po. The data set is classed as ADME, organism-based. The conditions noted are these: in vivo.
The nature of data set [6]: Oral bioavailability in rat at 10 mg/kg, po. As to conditions: in vivo. The data set is classed as ADME, organism-based.
The nature of data set [7]: Volume of distribution in rat at 0.5 mg/kg, iv and 10 mg/kg, po. The data set is classed as ADME, organism-based. As to conditions: in vivo.
The nature of data set [8]: Volume of distribution in dog at 0.5 mg/kg, iv. The arrangement: dose 0.5 mg/kg, route intravenous. The data set is classed as ADME, organism-based, Canis lupus familiaris. The conditions noted are these: in vivo.
The nature of data set [9]: Half life in dog at 0.5 mg/kg, iv. As to conditions: in vivo. On the set-up: dose 0.5 mg/kg, route intravenous. The data set is classed as ADME, organism-based, Canis lupus familiaris.
Data set [10] can be described thus: Clearance in dog at 0.5 mg/kg, iv. The data set is classed as ADME, organism-based, Canis lupus familiaris. The arrangement: dose 0.5 mg/kg, route intravenous. As to conditions: in vivo.

`O=C(Nc1ccc(F)cc1F)N1CCC(N(CCc2ccc(Cl)cc2)C(=O)c2csc3ccccc23)CC1`: in [1], the half-life was found to be 11 min. In data set [2], the logP is more than 5.

Regarding `O=C(c1csc2ccccc12)N(CCc1ccc(Cl)cc1)[C@H]1CC[C@H](O)CC1`, the logD in data set [3] turned out to be 4.9. The results for the half-life in data set [1] and in data set [4] were 14 min and 30 min, respectively. For the same molecule, the clearance in data set [5] was determined as 67 mL/min/kg. For the same molecule, the bioavailability in data set [6] was 0.5%. This molecule gave a Vd in data set [7] of 3 L/kg.

For the molecule `O=C(c1cccc2ccccc12)N(CCc1ccc(Cl)cc1)[C@H]1CC[C@H](O)CC1`, in data set [3], the log distribution coefficient (logD) is more than 5. The half-life in data set [1] is 20 min; in data set [9] it was 84 min. For the same molecule, the Vd in data set [8] was 3.5 L/kg. The clearance in [10] turned out to be 29 mL/min/kg.

With `O=C(c1csc2ccccc12)N(CCc1ccc(Cl)cc1)C1CCN(CCc2ccc(F)cc2F)CC1`, the pH-dependent lipophilicity (logD) in data set [3] stood at 4.1.

The values are drawn from ChEMBL document CHEMBL1152224, “Small, non-peptide C5a receptor antagonists: part 1” (Bioorg Med Chem Lett, 2008).
